Test results reported in the supplement of paper PMC10307832.

Assays:
Assay in all cases: relative viability (nuclei count vs DMSO), 5 days (fraction); higher = more cells survive
[1] = compound: NCC(=O)Nc1ccc(-n2nc(C(F)(F)F)cc2-c2ccc3c(ccc4ccccc43)c2)cc1 + O=C(c1cc(Cc2n[nH]c(=O)c3ccccc23)ccc1F)N1CCN(C(=O)C2CC2)CC1 [Olaparib] (partner 8 µM)
In short: (§1)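 Lung cancer cell lines in 1536-well plates got either a single drug or a fixed anchor-drug dose together with five library-drug doses (not always all listed) in √10 steps, by pin tool, on the day after seeding. Nuclei were counted after 5 days, and relative viability is the treated-to-vehicle ratio of nuclei counts. Values are medians of duplicate plates.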

[2] = compound: NCC(=O)Nc1ccc(-n2nc(C(F)(F)F)cc2-c2ccc3c(ccc4ccccc43)c2)cc1 + O=C(CCCCCCC(=O)Nc1ccccc1)NO [Vorinostat] (partner 1 µM)
In short: as §1

[3] = compound: C1CSC2=C(C(=O)N1)SC3=C2C=C(C=C3)O [kb NB 142-70] + O=C(CCCCCCC(=O)Nc1ccccc1)NO [Vorinostat] (partner 1 µM)
In short: as §1

[4] = compound: NCC(=O)Nc1ccc(-n2nc(C(F)(F)F)cc2-c2ccc3c(ccc4ccccc43)c2)cc1 + Nc1ncn([C@H]2C[C@H](O)[C@@H](CO)O2)c(=O)n1 [Decitabine] (partner 2 µM)
In short: as §1

Cell Line | relative viability ([1]; first compound 0.02 µM) | relative viability ([1]; first compound 0.06325 µM) | relative viability ([1]; first compound 0.2 µM) | relative viability ([1]; first compound 0.6325 µM) | relative viability ([1]; first compound 2 µM) | relative viability ([2]; first compound 0.02 µM) | relative viability ([2]; first compound 0.06325 µM) | relative viability ([2]; first compound 0.2 µM) | relative viability ([2]; first compound 0.6325 µM) | relative viability ([2]; first compound 2 µM) | relative viability ([3]; first compound 0.1 µM) | relative viability ([3]; first compound 1 µM) | relative viability ([3]; first compound 3.162 µM) | relative viability ([4]; first compound 0.02 µM) | relative viability ([4]; first compound 0.06325 µM) | relative viability ([4]; first compound 0.2 µM) | relative viability ([4]; first compound 0.6325 µM) | relative viability ([4]; first compound 2 µM)
NCI-H1648 | 0.577 | 1.03 | 1.02 | 0.649 | 0.56 | 0.416 | 0.423 | 0.762 | 0.408 | 0.536 | 0.356 | 0.345 | 0.423 | 0.577 | 0.515 | 0.479 | 0.549 | 0.445
SK-MES-1 | 0.773 | 0.727 | 0.84 | 0.775 | 0.706 | 1.06 | 1.07 | 1.17 | 1.02 | 1.23 | 1.09 | 1.21 | 0.567 | 0.386 | 0.36 | 0.461 | 0.359 | 0.4
HCC-366 | 0.351 | 0.406 | 0.345 | 0.387 | 0.349 | 0.254 | 0.423 | 0.419 | 0.357 | 0.435 | 0.473 | 0.372 | 0.231 | 0.353 | 0.369 | 0.367 | 0.352 | 0.517
201T | 0.867 | 0.868 | 0.856 | 0.879 | 0.844 | 0.926 | 0.968 | 0.957 | 0.974 | 0.935 | 0.943 | 1.02 | 1.06 | 0.838 | 0.846 | 0.901 | 0.87 | 0.846
HCC-827 | 0.916 | 0.642 | 0.61 | 0.595 | 0.767 | 0.906 | 0.335 | 0.876 | 0.9 | 0.834 | 0.763 | 0.864 | 0.88 | 0.315 | 0.212 | 0.31 | 0.309 | 0.335
NCI-H647 | 0.593 | 0.573 | 0.657 | 0.486 | 0.483 | 0.409 | 0.539 | 0.578 | 0.411 | 0.486 | 0.716 | 0.597 | 0.492 | 0.44 | 0.436 | 0.423 | 0.436 | 0.301
NCI-H2023 | 0.604 | 0.543 | 0.516 | 0.401 | 0.464 | 0.619 | 0.854 | 0.58 | 0.653 | 0.621 | 0.613 | 0.667 | 0.343 | 0.229 | 0.211 | 0.23 | 0.209 | 0.219
NCI-H520 | 0.404 | 0.285 | 0.377 | 0.339 | 0.334 | 0.631 | 0.779 | 0.873 | 0.77 | 0.763 | 0.775 | 0.681 | 0.304 | 0.562 | 0.546 | 0.505 | 0.449 | 0.587
RERF-LC-KJ | 0.98 | 0.97 | 1.01 | 0.985 | 0.897 | 0.59 | 0.652 | 0.609 | 0.758 | 0.772 | 0.729 | 0.754 | 0.677 | 0.758 | 0.791 | 0.673 | 0.78 | 0.641
A-427 | 0.701 | 0.742 | 0.679 | 0.776 | 0.781 | 0.864 | 0.825 | 0.908 | 0.839 | 0.982 | 0.864 | 0.969 | 0.932 | 0.502 | 0.544 | 0.583 | 0.545 | 0.57
NCI-H441 | 0.546 | 0.58 | 0.52 | 0.493 | 0.598 | 1.02 | 0.705 | 0.987 | 0.72 | 0.866 | 0.89 | 0.844 | 0.644 | 0.274 | 0.276 | 0.225 | 0.266 | 0.248
NCI-H1703 | 0.498 | 0.356 | 0.644 | 0.367 | 0.368 | – | – | – | – | – | – | – | – | – | – | – | – | –
NCI-H1792 | 0.597 | 0.518 | 0.404 | 0.385 | 0.511 | – | – | – | – | – | – | – | – | 0.705 | 0.569 | 0.479 | 0.605 | 0.582
Calu-6 | 0.568 | 0.578 | 0.553 | 0.562 | 0.571 | – | – | – | – | – | – | – | – | – | – | – | – | –
SK-LU-1 | 0.477 | 0.463 | 0.589 | 0.479 | 0.556 | 0.804 | 0.798 | 0.91 | 0.71 | 0.821 | 0.831 | 0.642 | 0.371 | 0.6 | 0.658 | 0.734 | 0.615 | 0.633
NCI-H1299 | 0.96 | 0.916 | 0.977 | 0.918 | 0.998 | – | – | – | – | – | – | – | – | – | – | – | – | –
NCI-H2228 | 0.354 | 0.641 | 0.827 | 0.52 | 0.633 | 0.727 | 0.599 | 0.685 | 0.723 | 0.663 | 0.988 | 0.557 | 0.512 | – | – | – | – | –
A549 | 0.294 | 0.291 | 0.339 | 0.29 | 0.239 | – | – | – | – | – | – | – | – | 0.263 | 0.249 | 0.2 | 0.257 | 0.31
IA-LM | 0.986 | 0.722 | 0.951 | 0.896 | 1 | 0.989 | 1.08 | 0.981 | 0.908 | 0.896 | 0.957 | 0.994 | 1.16 | – | – | – | – | –
CAL-12T | 0.761 | 0.735 | 0.659 | 0.711 | 0.765 | 0.692 | 0.822 | 1.04 | 0.684 | 0.916 | 0.767 | 0.663 | 0.564 | – | – | – | – | –
EBC-1 | 0.693 | 0.774 | 0.836 | 0.623 | 0.7 | – | – | – | – | – | – | – | – | – | – | – | – | –
